Assay results taken from patent US20150306108A1, “COMPOSITIONS OF ALDH1A1 INHIBITORS AND METHODS OF USE IN TREATING CANCER” (Indiana University Research & Technology Corporation, priority 2014, published 2015).

What was measured:
ALDH5A1 = molecular target: T1, ALDH5A1 (Homo sapiens, UniProt P51649); assay: ALDH5A1 selectivity assay; type: biochemical; conditions: 20 μM compound
T1 construct: The full length cDNA for human ALDH4A1 and ALDH5A1 were generously provided by Dania Mochly-Rosen; inferred from nickel-NTA purification and the pTrcHis-Topo plasmid; made in house; host or cells: bacterial host inferred from the pTrcHis-Topo plasmid and ampicillin medium
T1 sequence (P51649 48-535): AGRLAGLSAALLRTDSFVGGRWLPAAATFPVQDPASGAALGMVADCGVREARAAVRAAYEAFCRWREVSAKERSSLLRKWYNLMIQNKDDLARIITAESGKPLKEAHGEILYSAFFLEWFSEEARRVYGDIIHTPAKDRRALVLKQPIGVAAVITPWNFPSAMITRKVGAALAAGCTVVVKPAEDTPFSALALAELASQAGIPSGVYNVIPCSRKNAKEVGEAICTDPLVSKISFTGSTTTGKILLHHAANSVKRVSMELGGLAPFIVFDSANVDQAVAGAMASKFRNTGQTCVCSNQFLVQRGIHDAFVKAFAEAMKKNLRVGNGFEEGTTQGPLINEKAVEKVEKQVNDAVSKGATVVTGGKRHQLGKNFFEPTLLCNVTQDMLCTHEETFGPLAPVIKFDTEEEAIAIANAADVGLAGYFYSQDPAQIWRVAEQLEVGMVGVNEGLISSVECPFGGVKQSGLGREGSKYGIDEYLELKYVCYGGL
Source text: (§1) ALDH1A1, ALDH1A2, ALDH1A3, ALDH1B1, ALDH2, and ALDH3A1 were produced and purified as previously described. The ALDH1A1 protein used for the ALDH1A1-CM026 crystal contained an Asn-to-Ser SNP at residue 121. Unless where noted otherwise, ALDH1A1 WT protein was used for all aldehyde oxidation assays and for the ALDH1A1-CM053 structure. The full length cDNA for human ALDH4A1 and ALDH5A1 were generously provided by Dania Mochly-Rosen. ALDH4A1 was subcloned into the pET-28a expression plasmid and ALDH5A1 was in pTrcHis-Topo. The carboxyl terminal ALDH domain of rat ALDH1L1 was generously provided by Sergey Krupenko in the pRSET expression plasmid. ALDH1L1, ALDH4A1, and ALDH5A1 were expressed and purified as previously described for ALDH3A1^36 with the following modifications: 1) for ALDH1L1 and ALDH5A1 the medium contained 100 μg/mL ampicillin, 2) cells were lysed via 3 passages through a microfluidizer (DivTech Equipment), and 3) a single passage on a nickel-NTA column was used for purification, without the second Q-sepharose column used to purify ALDH3A1. Purified enzymes used for kinetics were stored at −80° C. ALDH1A1 used for crystallization was stored at −20° C. in a 50% (v/v) solution with glycerol and dialyzed against 10 mM Na^+-ACES pH 6.6 and 1 mM dithiothreitol at 4° C.

ALDH4A1 = molecular target: T2, ALDH4A1 (Homo sapiens, UniProt P30038); assay: ALDH4A1 selectivity assay; type: biochemical; conditions: 20 μM compound
T2 construct: The full length cDNA for human ALDH4A1 and ALDH5A1 were generously provided by Dania Mochly-Rosen; inferred from nickel-NTA purification and the pET-28a plasmid; made in house; host or cells: bacterial host inferred from the pET-28a plasmid
T2 sequence (P30038 25-563): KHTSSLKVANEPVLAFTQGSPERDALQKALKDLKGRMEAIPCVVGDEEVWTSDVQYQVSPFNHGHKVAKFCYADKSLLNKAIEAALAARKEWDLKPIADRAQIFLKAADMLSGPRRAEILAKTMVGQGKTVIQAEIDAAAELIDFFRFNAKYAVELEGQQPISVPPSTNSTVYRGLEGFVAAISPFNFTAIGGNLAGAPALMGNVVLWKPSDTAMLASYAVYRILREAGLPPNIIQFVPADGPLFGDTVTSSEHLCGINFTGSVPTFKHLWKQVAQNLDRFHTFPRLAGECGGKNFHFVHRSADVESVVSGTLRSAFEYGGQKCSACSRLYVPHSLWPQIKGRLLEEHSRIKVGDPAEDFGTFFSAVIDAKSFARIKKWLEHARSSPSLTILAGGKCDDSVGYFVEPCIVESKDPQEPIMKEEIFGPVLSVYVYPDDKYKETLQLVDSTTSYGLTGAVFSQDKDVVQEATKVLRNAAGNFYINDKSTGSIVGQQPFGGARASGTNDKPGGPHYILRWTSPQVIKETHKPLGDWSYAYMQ
Source text: as §1

IGROV1 cells = assay: Spheroid formation under low attachment culture conditions; type: cell-based, human; conditions: 7 days
Protocol: Ovarian cancer cell lines or primary cells were seeded at a concentration of 25,000 cells/ml in Mammocult complete medium (StemCell Technologies) and ultra-low attachment plates (Corning, Corning, N.Y.). Spheroids were trypsinized every 7 days and re-plated to generate successive generations. To observe spheroid morphology, A2780, SKOV3, IGROV1, and primary cells were cultured in a rotating bioreactor (Synthecon, Houston, Tex.) until […] compact spheroids were visible (10-30 days). They were harvested, preserved with Histochoice MB Tissue Fixative (Amresco, Solon, Ohio) for 1 hour, and embedded in Immuno-bed resin (Polysciences, Warrington, Pa.). Two micron thick sections were cut on an ultramicrotome and stained with 0.1% methylene blue/0.15% basic fuchsin in 50% methanol.
Cell viability was measured by the trypan blue (ThermoScientific) exclusion test. Cell proliferation was quantified by the MTT assay. Spheroids were counted after centrifugation at 300×g for 5 minutes. All assays were performed in four replicates. Data are presented as means±SEM.

Row | SMILES | effect on ALDH5A1 (ALDH5A1) | effect on ALDH4A1 (ALDH4A1) | formation of spheres (IGROV1 cells; 50 μM, low attachment) | concentration from which dose-dependent inhibition of spheroid formation starts (IGROV1 cells; 1, 5, 10 and 50 μM) [µM]
1 | CC(C)CCn1c(CN2CCN(C(=O)c3ccco3)CC2)nc2c1c(=O)n(C)c(=O)n2C [CM026] | no effect | no effect |  | 
2 | CCOC(=O)CSc1nc2c(sc3ccccc32)c(=O)n1CCCN1CCCC1 [CM037, ethyl-2-((4-oxo-3-(3-(pryrrolidin-1-yl)propyl)-3,4-dihydrobenzo[4,5]thioeno[3,2-d]pyrimidin-2-yl)thio)acetate] |  |  | completely inhibited | ≥ 1
